# Reference: paper PMC8307317, “Point-Substitution of Phenylalanine Residues of 26RFa Neuropeptide: A Structure-Activity Relationship Study” (Molecules, 2021)
# Starred links: 1 amine or outer side, 2 acyl side, 3 side chain; linkers in the order of their positions; H or OH if unused. Positions of bridges follow the written chain, without caps; N, C: chain ends. Non-standard residues stand in square brackets, D forms with d. Residues, ends and D or L forms follow the SMILES beside them. No end group written: not given here. ξ: configuration not given here. *: point of attachment. Ahppa(3S,4S) = O=C(C[C@H](O)[C@H](Cc1ccccc1)N[*:1])[*:2]; Phe(4-NO2) = N[C@@H](Cc1ccc([N+](=O)[O-])cc1)C(=O)O; Phe(4-Cl) = N[C@@H](Cc1ccc(Cl)cc1)C(=O)O; 2Nal = N[C@@H](Cc1ccc2ccccc2c1)C(=O)O; X5 = COc1ccc(C(C(=O)*)N2CCNCC2)cc1; X6 = O=C(C(c1ccc(F)cc1)N1CCNCC1)*; NMeF = CN[C@@H](Cc1ccccc1)C(=O)O; Tic = O=C(O)[C@@H]1Cc2ccccc2CN1; X8 = O=C(C(c1ccccc1F)N1CCNCC1)*; 2Thi = N[C@@H](Cc1cccs1)C(=O)O; X1 = O=C(C(c1cccnc1)N1CCNCC1)*; X2 = O=C(C(c1ccccc1)N1CCNCC1)*; ξPhg = NC(C(=O)O)c1ccccc1
# Target: T1, human QRFPR (hQRFPR) (Homo sapiens, UniProt Q96P65)
# T1 construct: expressed in transfected cells; host or cells: CHO cells, stably transfected with hQRFPR (G418 selection) and Gα16 (hygromycin B selection)
# T1 sequence (Q96P65 1-431): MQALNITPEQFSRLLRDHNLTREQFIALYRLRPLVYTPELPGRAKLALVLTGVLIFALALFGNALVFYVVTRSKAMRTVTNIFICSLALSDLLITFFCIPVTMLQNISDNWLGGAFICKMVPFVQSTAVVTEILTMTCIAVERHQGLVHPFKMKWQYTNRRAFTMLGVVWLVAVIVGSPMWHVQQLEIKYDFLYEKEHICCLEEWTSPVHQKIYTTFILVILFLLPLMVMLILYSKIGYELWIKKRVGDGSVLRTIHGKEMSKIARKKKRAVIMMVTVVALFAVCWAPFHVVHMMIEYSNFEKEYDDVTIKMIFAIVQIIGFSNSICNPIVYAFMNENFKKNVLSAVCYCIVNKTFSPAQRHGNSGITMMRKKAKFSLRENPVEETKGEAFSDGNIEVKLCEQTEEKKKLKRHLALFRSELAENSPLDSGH
# Assay: Calcium mobilization assay, agonist mode ([Ca2+]i in Gα16-hQRFPR-transfected CHO cells)
# Type: cell-based
# Settings: [Ca2+]i mobilization in Gα16-hQRFPR-transfected CHO cells; mean of at least three independent experiments performed in triplicate; read-out: EC50
# Procedure: Stably transfected hQRFPR CHO cells were obtained as previously described. The cells were maintained in F-12 nutrient mixture (Ham-F12) medium supplemented with 10% fetal bovine serum, 2 mM glutamine, and penicillin-streptomycin. Expression of Gα16 cells was maintained using selection antibiotic hygromycin B (200 µg/mL) and that of hQRFPR using geneticin G418 (500 µg/mL) (Life Technologies, Villebon-Sur-Yvette, France) in a humidified 5% CO2 atmosphere at 37 °C.
# Changes in intracellular Ca^2+ concentrations induced by 26RFa(20–26) analogs in CHO-Gα16-hQRFPR-transfected cells were measured on a benchtop scanning fluorometer Flexstation III (Molecular Devices, Sunnyvale, CA, USA) as previously described. Briefly, 96-well assay black plates with clear bottoms (Corning international, Avon, France) were seeded at a density of 40,000 cells/well 24 h prior to assay. For profiling agonistic experiments, cells were loaded with 2 µM Fluo-4 acetoxymethyl ester (AM) (Invitrogen) for 1 h in the presence of 0.01% pluronic acid, washed thrice, and incubated for 30 min with standard HBSS containing 2.5 mM probenecid and 5 mM HEPES. Compounds to be tested were added at final concentrations ranging from 10^−11 to 10^−5 M in HBSS, and the fluorescence intensity was measured during 3 min. To evaluate the antagonistic potency of the test compounds, cells were incubated with each compound over 15 min after Fluo-4 AM loading. Then, during fluorescence recording, a pulse of 26RFa was administered at a final concentration of 10^−7 M. After subtraction of the mean fluorescence background, the baseline was normalized to 100%. Fluorescence peak values were determined for each concentration of compound.
# Calcium experiments were performed in triplicate, and data, expressed as mean ± SEM of at least three distinct experiments, were analyzed with the Prism 8.0 software (Graphpad Software, San Diego, CA, USA). EC50 and the IC50 values were determined from concentration–response curves using a sigmoidal dose–response fit with variable slope from at least three independent determinations. Differences between 26RFa(20–26) and analog activities were analyzed by the Mann–Whitney test. p values < 0.05 were considered significant.
row,Molecule,EC50
1,"N=C(N)NCCC[C@H](NC(=O)[C@H](Cc1ccc2ccccc2c1)NC(=O)[C@H](CO)NC(=O)[C@H](Cc1ccccc1)NC(=O)CNC(=O)CN)C(=O)N[C@@H](Cc1ccccc1)C(N)=O [Compound 6, [2Nal^24]26RFa(20–26)] (H-GGFS[2Nal]RF-NH2)",15.3 µM
2,"N=C(N)NCCC[C@H](NC(=O)[C@H](Cc1ccccc1)NC(=O)[C@H](CO)NC(=O)[C@H](Cc1ccc(Cl)cc1)NC(=O)CNC(=O)CN)C(=O)N[C@@H](Cc1ccccc1)C(N)=O [Compound 14, [Pcp^22]26RFa(20–26)] (H-GG[Phe(4-Cl)]SFRF-NH2)",5 µM
3,"N=C(N)NCCC[C@H](NC(=O)[C@@H](Cc1c[nH]c2ccccc12)NC(=O)[C@H](CO)NC(=O)[C@H](Cc1ccccc1)NC(=O)CNC(=O)CN)C(=O)N[C@@H](Cc1ccccc1)C(N)=O [Compound 38, [DTrp^24]26RFa(20–26)] (H-GGFS[dW]RF-NH2)",> 10 µM
4,"N=C(N)NCCC[C@H](NC(=O)[C@H](Cc1ccccc1)NC(=O)[C@H](CO)NC(=O)C(NC(=O)CNC(=O)CN)c1ccccc1)C(=O)N[C@@H](Cc1ccccc1)C(N)=O (some centres unmarked) [Compound 20, [Phg^22]26RFa(20–26)] (H-GG[ξPhg]SFRF-NH2)",5.01 µM
5,"N=C(N)NCCC[C@H](NC(=O)[C@H](Cc1ccccc1)NC(=O)[C@H](CO)NC(=O)C(c1ccc(F)cc1)N1CCNCC1)C(=O)N[C@@H](Cc1ccccc1)C(N)=O (some centres unmarked) [Compound 52, [Cmpi(4-FPhg)^22]26RFa(22–26)] (X6-SFRF-NH2)",1.66 µM
6,"N=C(N)NCCC[C@H](NC(=O)[C@H](Cc1ccccc1)NC(=O)[C@H](CO)NC(=O)[C@H](Cc1ccc([N+](=O)[O-])cc1)NC(=O)CNC(=O)CN)C(=O)N[C@@H](Cc1ccccc1)C(N)=O [Compound 17, [pNO2Phe^22]26RFa(20–26)] (H-GG[Phe(4-NO2)]SFRF-NH2)",2.13 µM
7,"N=C(N)NCCC[C@H](NC(=O)[C@H](Cc1ccccc1)NC(=O)[C@H](CO)NC(=O)C[C@H](O)[C@H](Cc1ccccc1)NC(=O)CNC(=O)CN)C(=O)N[C@@H](Cc1ccccc1)C(N)=O [Compound 34, [AHPPA^22]26RFa(20–26)] (H-GG[Ahppa(3S,4S)]SFRF-NH2)",2.85 µM
8,"COc1ccc(C(C(=O)N[C@@H](CO)C(=O)N[C@@H](Cc2ccccc2)C(=O)N[C@@H](CCCNC(=N)N)C(=O)N[C@@H](Cc2ccccc2)C(N)=O)N2CCNCC2)cc1 (some centres unmarked) [Compound 60, [Cmpi(4-MeOPhg)^22]26RFa(22–26)] (X5-SFRF-NH2)",> 10 µM
9,"N=C(N)NCCC[C@H](NC(=O)C[C@H](O)[C@H](Cc1ccccc1)NC(=O)[C@H](CO)NC(=O)[C@H](Cc1ccccc1)NC(=O)CNC(=O)CN)C(=O)N[C@@H](Cc1ccccc1)C(N)=O [Compound 35, [AHPPA^24]26RFa(20–26)] (H-GGFS[Ahppa(3S,4S)]RF-NH2)",> 10 µM
10,"GGWSFRF-NH2 [Compound 8, [Trp^22]26RFa(20–26)]",1.98 µM
11,"N=C(N)NCCC[C@H](NC(=O)C(NC(=O)[C@H](CO)NC(=O)[C@H](Cc1ccccc1)NC(=O)CNC(=O)CN)c1ccccc1)C(=O)N[C@@H](Cc1ccccc1)C(N)=O (some centres unmarked) [Compound 21, [Phg^24]26RFa(20–26)] (H-GGFS[ξPhg]RF-NH2)",> 10 µM
12,"N=C(N)NCCC[C@H](NC(=O)[C@H](Cc1ccccc1)NC(=O)[C@H](CO)NC(=O)[C@H](Cc1ccccc1)NC(=O)CNC(=O)CN)C(=O)N[C@@H](Cc1cccs1)C(N)=O [Compound 4, [Thi^26]26RFa(20–26)] (H-GGFSFR[2Thi]-NH2)",7.23 µM
13,"N=C(N)NCCC[C@H](NC(=O)[C@H](Cc1ccccc1)NC(=O)[C@H](CO)NC(=O)[C@@H](Cc1c[nH]c2ccccc12)NC(=O)CNC(=O)CN)C(=O)N[C@@H](Cc1ccccc1)C(N)=O [Compound 37, [DTrp^22]26RFa(20–26)] (H-GG[dW]SFRF-NH2)",6.16 µM
14,"N=C(N)NCCC[C@@H]1NC(=O)[C@H](Cc2ccccc2)NC(=O)[C@H](CO)NC(=O)[C@@H](NC(=O)CNC(=O)CN)CSSC[C@@H](C(N)=O)NC1=O [Compound 47, [Cys^22,26]26RFa(20–26)] (H-GGCSFRC-NH2; disulfide 3-7)",> 10 µM
15,"CN(C(=O)CNC(=O)CN)[C@@H](Cc1ccccc1)C(=O)N[C@@H](CO)C(=O)N[C@@H](Cc1ccccc1)C(=O)N[C@@H](CCCNC(=N)N)C(=O)N[C@@H](Cc1ccccc1)C(N)=O [Compound 25, [NMePhe^22]26RFa(20–26)] (H-GG[NMeF]SFRF-NH2)",15.1 µM
16,"N=C(N)NCCC[C@H](NC(=O)[C@H](Cc1ccccc1)NC(=O)[C@H](CO)NC(=O)C(c1ccccc1F)N1CCNCC1)C(=O)N[C@@H](Cc1ccccc1)C(N)=O (some centres unmarked) [Compound 56, [Cmpi(2-FPhg)^22]26RFa(22–26)] (X8-SFRF-NH2)",> 10 µM
17,"N=C(N)NCCC[C@H](NC(=O)[C@H](Cc1ccc(Cl)cc1)NC(=O)[C@H](CO)NC(=O)[C@H](Cc1ccccc1)NC(=O)CNC(=O)CN)C(=O)N[C@@H](Cc1ccccc1)C(N)=O [Compound 15, [Pcp^24]26RFa(20–26)] (H-GGFS[Phe(4-Cl)]RF-NH2)",0.85 µM
18,"GGFSFRW-NH2 [Compound 10, [Trp^26]26RFa(20–26)]",5.06 µM
19,"N=C(N)NCCC[C@H](NC(=O)[C@H](Cc1ccccc1)NC(=O)[C@H](CO)NC(=O)C(c1cccnc1)N1CCNCC1)C(=O)N[C@@H](Cc1ccccc1)C(N)=O (some centres unmarked) [Compound 64, [Cmpi(3-Pyg)^22]26RFa(22–26)] (X1-SFRF-NH2)",> 10 µM
20,"N=C(N)NCCC[C@H](NC(=O)[C@H](Cc1ccccc1)NC(=O)[C@H](CO)NC(=O)[C@@H]1Cc2ccccc2CN1C(=O)CNC(=O)CN)C(=O)N[C@@H](Cc1ccccc1)C(N)=O [Compound 28, [Tic^22]26RFa(20–26)] (H-GG[Tic]SFRF-NH2)",0.327 µM
21,"N=C(N)NCCC[C@H](NC(=O)[C@H](Cc1ccccc1)NC(=O)[C@H](CO)NC(=O)C(c1ccccc1F)N1CCNCC1)C(=O)N[C@@H](Cc1ccccc1)C(N)=O (some centres unmarked) [Compound 55, [Cmpi(2-FPhg)^22]26RFa(22–26)] (X8-SFRF-NH2; N-terminus assumed)",2.48 µM
22,"N=C(N)NCCC[C@H](NC(=O)[C@H](Cc1ccccc1)NC(=O)[C@H](CO)NC(=O)C(c1ccccc1)N1CCNCC1)C(=O)N[C@@H](Cc1ccccc1)C(N)=O (some centres unmarked) [Compound 49, [Cmpi(Phg)^22]26RFa(22–26)] (X2-SFRF-NH2)",> 10 µM
23,"GGFSWRF-NH2 [Compound 9, [Trp^24]26RFa(20–26)]",2.04 µM
24,"N=C(N)NCCC[C@H](NC(=O)[C@H](Cc1ccccc1)NC(=O)[C@H](CO)NC(=O)[C@H](Cc1cccs1)NC(=O)CNC(=O)CN)C(=O)N[C@@H](Cc1ccccc1)C(N)=O [Compound 2, [Thi^22]26RFa(20–26)] (H-GG[2Thi]SFRF-NH2)",3.16 µM
25,"N=C(N)NCCC[C@H](NC(=O)[C@H](Cc1ccccc1)NC(=O)[C@H](CO)NC(=O)[C@H](Cc1ccccc1)NC(=O)CNC(=O)CN)C(=O)N[C@@H](Cc1ccc([N+](=O)[O-])cc1)C(N)=O [Compound 19, [pNO2Phe^26]26RFa(20–26)] (H-GGFSFR[Phe(4-NO2)]-NH2)",0.491 µM
26,"N=C(N)NCCC[C@H](NC(=O)[C@H](Cc1ccccc1)NC(=O)[C@H](CO)NC(=O)[C@H](Cc1ccccc1)NC(=O)CNC(=O)CN)C(=O)NC(C(N)=O)c1ccccc1 (some centres unmarked) [Compound 24, [Phg^26]26RFa(20–26)] (H-GGFSFR[ξPhg]-NH2)",> 10 µM

# Same assay, conditions: [Ca2+]i mobilization; N-methylated analogs; read-out: EC50
row,Molecule,EC50
1,"CN(C(=O)CNC(=O)CN)[C@@H](Cc1ccccc1)C(=O)N[C@@H](CO)C(=O)N[C@@H](Cc1ccccc1)C(=O)N[C@@H](CCCNC(=N)N)C(=O)N[C@@H](Cc1ccccc1)C(N)=O [Compound 25, [NMePhe^22]26RFa(20–26)] (H-GG[NMeF]SFRF-NH2)",> 10 µM

# Same assay, conditions: single prototype curve, triplicate; basal [Ca2+]i mobilization; read-out: EC50 calculated from representative dose–response curves (Figure 3)
row,Molecule,EC50
1,"N=C(N)NCCC[C@H](NC(=O)[C@H](Cc1ccccc1)NC(=O)[C@H](CO)NC(=O)[C@@H]1Cc2ccccc2CN1C(=O)CNC(=O)CN)C(=O)N[C@@H](Cc1ccccc1)C(N)=O [Compound 28, [Tic^22]26RFa(20–26)] (H-GG[Tic]SFRF-NH2)",0.305 µM
2,"N=C(N)NCCC[C@H](NC(=O)[C@H](Cc1ccccc1)NC(=O)[C@H](CO)NC(=O)[C@H](Cc1ccccc1)NC(=O)CNC(=O)CN)C(=O)N[C@@H](Cc1ccc([N+](=O)[O-])cc1)C(N)=O [Compound 19, [pNO2Phe^26]26RFa(20–26)] (H-GGFSFR[Phe(4-NO2)]-NH2)",0.489 µM
